Experimental data published in publication PMC4844700, “Rifampin phosphotransferase is an unusual antibiotic resistance kinase” (Nature Communications, 2016).

Assays:
[1] = target: T1, RPH-Lm (rifampin phosphotransferase) (Listeria monocytogenes, UniProt A0A0X1KHF9); test: SAXS, ensemble optimization; format: binding; settings: Mg2+; 20 mM Hepes pH 7.5, 100 mM KCl; 10 °C; 10-fold molar excess; non-hydrolysable ATP analogue
T1 construct: full-length from E. coli; crystals and SAXS: His6-tag removed by TEV (pMCSG53 for crystals); kinetics: pET19Tb:rph-Lm; monomer; ATP-grasp 1-314, RIF-BD 327-754, swivel 767-865, catalytic His825
T1 sequence (A0A0X1KHF9 whole entry): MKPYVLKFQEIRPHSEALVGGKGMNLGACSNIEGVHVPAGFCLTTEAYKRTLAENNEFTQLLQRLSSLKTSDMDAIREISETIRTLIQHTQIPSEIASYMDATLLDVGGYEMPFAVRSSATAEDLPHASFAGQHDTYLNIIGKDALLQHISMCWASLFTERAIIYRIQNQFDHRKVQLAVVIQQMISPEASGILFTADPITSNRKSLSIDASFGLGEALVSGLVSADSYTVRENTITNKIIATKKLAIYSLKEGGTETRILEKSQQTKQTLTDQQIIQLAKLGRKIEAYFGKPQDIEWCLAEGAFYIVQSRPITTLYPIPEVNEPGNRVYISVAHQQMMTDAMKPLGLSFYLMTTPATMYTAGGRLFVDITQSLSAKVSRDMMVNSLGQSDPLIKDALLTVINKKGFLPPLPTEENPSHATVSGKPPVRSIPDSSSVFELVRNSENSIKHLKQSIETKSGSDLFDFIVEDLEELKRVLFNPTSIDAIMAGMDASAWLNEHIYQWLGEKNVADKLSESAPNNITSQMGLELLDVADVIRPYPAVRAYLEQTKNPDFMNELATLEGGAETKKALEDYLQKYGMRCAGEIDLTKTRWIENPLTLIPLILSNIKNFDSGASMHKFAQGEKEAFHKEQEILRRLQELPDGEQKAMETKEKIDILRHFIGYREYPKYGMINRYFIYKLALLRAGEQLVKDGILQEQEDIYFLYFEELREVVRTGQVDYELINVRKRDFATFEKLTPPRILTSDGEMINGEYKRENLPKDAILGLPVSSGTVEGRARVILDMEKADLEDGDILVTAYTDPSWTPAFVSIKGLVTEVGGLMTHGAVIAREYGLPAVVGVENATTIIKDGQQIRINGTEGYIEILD

[2] = target: T1, RPH-Lm (rifampin phosphotransferase); test: X-ray crystallography; settings: crystallized with 5 mM RIF and 5 mM ATP; RIF-binding domain; 2.85 Å
[3] = target: T1, RPH-Lm (rifampin phosphotransferase); test: X-ray crystallography (SAD); settings: Se-Met protein; 5 mM RIF; pH 6; RIF-binding domain; 2.70 Å
[4] = test system: CO[C@H]1/C=C/O[C@@]2(C)Oc3c(C)c(O)c4c(O)c(c(/C=N/N5CCN(C)CC5)c(O)c4c3C2=O)NC(=O)/C(C)=C\C=C\[C@H](C)[C@H](O)[C@@H](C)[C@@H](O)[C@@H](C)[C@H](OC(C)=O)[C@@H]1C; test: purified protein; settings: ATP at five times its Km, 50 mM Hepes pH 7.5, 5 mM MgCl2, 40 mM NH4Cl, 25 °C, 11.3 μM enzyme

For `Nc1ncnc2c1ncn2[C@@H]1O[C@H](COP(=O)(O)OP(=O)(O)NP(=O)(O)O)[C@@H](O)[C@H]1O` [AMP-PnP], the “SAXS, ensemble optimization” value [1] was “RPH-Lm bound to either analogue showed an increase in the ATP-grasp engaged population”.

With `Nc1ncnc2c1ncn2[C@@H]1O[C@H](COP(=O)(O)CP(=O)(O)OP(=O)(O)O)[C@@H](O)[C@H]1O` [AMP-cPP] the “SAXS, ensemble optimization” value [1] was “RPH-Lm bound to either analogue showed an increase in the ATP-grasp engaged population”.

With `CO[C@H]1/C=C/O[C@@]2(C)Oc3c(C)c(O)c4c(O)c(c(/C=N/N5CCN(C)CC5)c(O)c4c3C2=O)NC(=O)/C(C)=C\C=C\[C@H](C)[C@H](OP(=O)(O)O)[C@@H](C)[C@@H](O)[C@@H](C)[C@H](OC(C)=O)[C@@H]1C` [RIF-P] the X-ray crystallography [2] was 5FBU (RPH-Lm·RIF-P).

In the case of `CO[C@H]1/C=C/O[C@@]2(C)Oc3c(C)c(O)c4c(O)c(c(/C=N/N5CCN(C)CC5)c(O)c4c3C2=O)NC(=O)/C(C)=C\C=C\[C@H](C)[C@H](O)[C@@H](C)[C@@H](O)[C@@H](C)[C@H](OC(C)=O)[C@@H]1C` [RIF], the “X-ray crystallography (SAD)” value [3] is reported as 5FBT (RPH-Lm·RIF).

“RPH-Lm (rifampin phosphotransferase) (Listeria monocytogenes serotype 4b str. F2365)” was tested, and the Km [4] was 0.57 ± 0.15 µM, the kcat [4] was 2.25 ± 0.17 s⁻¹ and the kcat/Km [4] was 3.94e+06 M⁻¹ s⁻¹.
